Patent US8338599B2, “Compounds having a potentiating effect on the activity of ethionamide and uses thereof” (priority 2006, dated 2012)
≈ marks a conversion by molar mass, not a printed value. Where “and” joins values, the source holds several entries; their conditions need not be identical. Equal entries are not always repeated.

How the values were obtained:
[1] = Measurement of the solubility (PBS pH 7.4 vs methanol, LC/MS); format: physicochemical; details: pH 7.4, aqueous buffer, kinetic from dmso stock
Description: e) Measurement of the Solubility of the Compounds of the Invention
40 μl of a solution containing a compound of the invention at a concentration of 10 mM in DMSO were diluted in 1.960 ml of methanol, and another 40 μl were diluted in 1.960 ml of a PBS solution containing 675 mM of NaCl, 13.5 mM of KCl, 50 mM of Na2HPO4.2H2O and 10 mM of KH2PO4 at a pH of 7.4. The two solutions were stirred for 24 hours at room temperature, and then centrifuged for 5 minutes and filtered through 0.45 μm filters. 20 μl of each solution were then diluted in 118 μl of methanol and analyzed by liquid chromatography coupled to mass spectrometry (LC/MS). The solubility was determined by the ratio of the areas under the curve of the mass signal for the compound of the invention, according to the following equation: […]

M. bovis BCG = format: cell-based, M. bovis BCG 1173P2; details: from MIC of ETH alone (6 μM) and MIC of ETH with 25 μM compound
EthR protein [2] = target: T1, EthR protein (Mycobacterium tuberculosis, UniProt P9WMC1); experiment: Inhibition of interaction of EthR with its target DNA sequence (BIAcore); format: binding, M. tuberculosis H37Rv; details: compound 3 μM, EthR 540 nM, 37° C.
Description: a) Measurement of the Activity of the Compounds on the Inhibition of Interaction of EthR with its Target DNA Sequence
The in vitro measurements of inhibition of binding of the EthR protein to its target DNA sequence were performed on a machine of BIAcore®2000 type (AB, Uppsala, Sweden).
The chips used are CM5 chips sold by the company GE Healthcare. Both the channels of a chip were activated with a solution containing 200 mM of EDC(N-ethyl-N′-(3-[…])carbodiimide) and 50 mM of NHS (N-hydroxysuccinimide). Next, streptavidin (500 ng/μl in a solution containing 10 mM of sodium acetate (pH 3.5) was injected over 12 minutes at a flow rate of 10 μl/minute. The 106-base-pair biotinylated DNA fragment corresponding to the ethA-R intergene region was deposited on one of the two channels of the chip at a rate of 200 ng/ml in order to obtain stable binding of streptavidin corresponding to 50 RU (resonance units). This DNA fragment was obtained by PCR using the chromosomal DNA of M. tuberculosis H37Rv as matrix and O-270: 5′-[…]-3′ (SEQ ID: No. 1) and O-271: 5′-biotin-[…]-3′ (SEQ ID: No. 2). The second channel was functionalized with a 113-base-pair biotinylated DNA fragment (fragment +14 to +127 of the bla gene of E. coli PCR-amplified using the following oligonucleotides: O-343: 5′-[…]-3′ (SEQ ID: No. 3) and O-344: 5′-biotin-[…]-3′ (SEQ ID: No. 4).
Measurement of the binding of the EthR protein to the immobilized DNA was performed at 37° C. in a reference buffer containing 10 mM of Tris-HCl (pH=7.5), 200 mM of NaCl, 0.1 mM of EDTA, 1 mM of DTT and 1% of DMSO at a flow rate of 20 μl/minute. The specific interaction (SI) of EthR with the 106-base-pair double-stranded DNA sequence, expressed in resonance units, corresponds to the difference in signal observed between the two channels.
For each inhibition measurement, the compounds of the invention are dissolved in the reference buffer at a concentration of 3 μM. The compounds of the invention are then incubated in the presence of the protein (540 nM) at 37° C. for 5 minutes, and each solution is then injected onto the two channels of the chip for 3 minutes at a flow rate of 20 μl/minute. The inhibition values are calculated at the end of the injection according to the following equation: […]
in which SIEthR corresponds to the value measured without ligand and SIEthR+ligand corresponds to the value measured in the presence of to ligand.

EthR protein [3] = target: T1, EthR protein; experiment: In vitro measurement of the IC50 (EthR/DNA binding, BIAcore); design: species or system M. tuberculosis H37Rv
Description: b) In Vitro Measurement of the IC50 of the Compounds of the Invention.
The in vitro measurement of this datum was performed according to the same principle as for the measurement of inhibition of the EthR/DNA binding using the BIAcore technique.
The specific interaction between EthR and the specific 106-bp DNA fragment was measured on a range of six concentrations of the compounds of the invention, this range extending from 0.11 μM to 27 μM. The IC50 values are then extrapolated from the sigmoid curves obtained.

M. tuberculosis H37Rv = experiment: Ethionamide-potentiating effect, fluorimetric detection on Bactec MGIT 960; format: cell-based
[4] = strain 1%, no ETH, ligand 25 μM
[5] = strain 100%, ETH 0.025 μg/mL + ligand 25 μM
[6] = strain 100%, ETH 0.05 μg/mL + ligand 25 μM
[7] = strain 100%, ETH 0.1 μg/mL + ligand 25 μM
[8] = strain 100%, ETH 0.25 μg/mL + ligand 25 μM
[9] = strain 100%, no ETH, ligand 25 μM

T1 sequence (P9WMC1 whole entry, looked up): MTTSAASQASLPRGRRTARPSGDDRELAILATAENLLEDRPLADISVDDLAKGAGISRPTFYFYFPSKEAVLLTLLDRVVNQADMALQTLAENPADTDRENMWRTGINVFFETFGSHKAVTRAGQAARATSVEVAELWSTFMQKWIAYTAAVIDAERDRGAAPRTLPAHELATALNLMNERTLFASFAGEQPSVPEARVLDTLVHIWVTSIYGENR

C=CCCC(=O)N1CCC(c2nc(-c3cccs3)no2)CC1 [Compound 20, 1-[4-(3-thiophen-2-yl[1,2,4]oxadiazol-5-yl)piperid-1-yl]pent-4-en-1-one]
solubility at 24 h [1]: 63.5 µg/mL (≈ 200 µM)
Potentiation % (M. bovis BCG): 2500%
inhibition at 3 µM (EthR protein [2]): 53%
IC50 (EthR protein [3]): 1000 nM
potentiation of the ethionamide activity (factor) (M. tuberculosis H37Rv; compound 25 μM): about 20 fold

N#CCC(=O)N1CCC(c2nc(-c3cccs3)no2)CC1 [Compound 22, 3-oxo-3-[4-(3-thiophen-2-yl[1,2,4]oxadiazol-5-yl)piperid-1-yl]propionitrile]
solubility at 24 h [1]: 60.4 µg/mL (≈ 200 µM)
Potentiation % (M. bovis BCG): 2500%
inhibition at 3 µM (EthR protein [2]): 28%
IC50 (EthR protein [3]): 3330 nM
potentiation of the ethionamide activity (factor) (M. tuberculosis H37Rv; compound 25 μM): ~10 fold
potentiation of the ethionamide activity (factor) (M. tuberculosis H37Rv; compound 25 μM, listed as compound 22): about 10 fold

O=C(CC1CC1)N1CCC(c2nc(-c3cccs3)no2)CC1 [Compound 33, 2-cyclopropyl-1-[4-(3-thiophen-2-yl[1,2,4]oxadiazol-5-yl)piperid-1-yl]ethanone]
solubility at 24 h [1]: 63.5 µg/mL (≈ 200 µM)
Potentiation % (M. bovis BCG): 2500%
inhibition at 3 µM (EthR protein [2]): 71%
IC50 (EthR protein [3]): 1120 nM
bacterial growth-inhibiting properties of the compound alone (M. tuberculosis H37Rv; 25 μM, no ETH (lines A5 and D3)): absence of bacterial growth-inhibiting properties
MIC (M. tuberculosis H37Rv; Mycobacterium tuberculosis, H37RV, compound 25 μM, read-out: MIC for ETH in the presence of compound): 0.05 µg/mL and 0.3 µM
State (M. tuberculosis H37Rv; [4]): R
fluorescence reading D + 0 (M. tuberculosis H37Rv; [4]): 0
fluorescence reading D + 1 (M. tuberculosis H37Rv; [4]): 0
fluorescence reading D + 5 (first column, c6) (M. tuberculosis H37Rv; [4]): 0
fluorescence reading D + 5 (second column, c7) (M. tuberculosis H37Rv; [4]): 0
fluorescence reading D + 6 (M. tuberculosis H37Rv; [4]): 1
fluorescence reading D + 7 (first column, c9) (M. tuberculosis H37Rv; [4]): 180
fluorescence reading D + 7 (second column, c10) (M. tuberculosis H37Rv; [4]): 319
fluorescence reading J + 8 (M. tuberculosis H37Rv; [4]): 400
State (M. tuberculosis H37Rv; [5]): R
fluorescence reading D + 0 (M. tuberculosis H37Rv; [5]): 0
fluorescence reading D + 1 (M. tuberculosis H37Rv; [5]): 0
fluorescence reading D + 5 (first column, c6) (M. tuberculosis H37Rv; [5]): 200
fluorescence reading D + 5 (second column, c7) (M. tuberculosis H37Rv; [5]): 353
fluorescence reading D + 6 (M. tuberculosis H37Rv; [5]): 400
fluorescence reading D + 7 (first column, c9) (M. tuberculosis H37Rv; [5]): 400
fluorescence reading D + 7 (second column, c10) (M. tuberculosis H37Rv; [5]): 400
fluorescence reading J + 8 (M. tuberculosis H37Rv; [5]): 400
State (M. tuberculosis H37Rv; [6]): S
fluorescence reading D + 0 (M. tuberculosis H37Rv; [6]): 0
fluorescence reading D + 1 (M. tuberculosis H37Rv; [6]): 0
fluorescence reading D + 5 (first column, c6) (M. tuberculosis H37Rv; [6]): 0
fluorescence reading D + 5 (second column, c7) (M. tuberculosis H37Rv; [6]): 0
fluorescence reading D + 6 (M. tuberculosis H37Rv; [6]): 0
fluorescence reading D + 7 (first column, c9) (M. tuberculosis H37Rv; [6]): 0
fluorescence reading D + 7 (second column, c10) (M. tuberculosis H37Rv; [6]): 0
fluorescence reading J + 8 (M. tuberculosis H37Rv; [6]): 0
State (M. tuberculosis H37Rv; [7]): S
fluorescence reading D + 0 (M. tuberculosis H37Rv; [7]): 0
fluorescence reading D + 1 (M. tuberculosis H37Rv; [7]): 0
fluorescence reading D + 5 (first column, c6) (M. tuberculosis H37Rv; [7]): 0
fluorescence reading D + 5 (second column, c7) (M. tuberculosis H37Rv; [7]): 0
fluorescence reading D + 6 (M. tuberculosis H37Rv; [7]): 0
fluorescence reading D + 7 (first column, c9) (M. tuberculosis H37Rv; [7]): 0
fluorescence reading D + 7 (second column, c10) (M. tuberculosis H37Rv; [7]): 0
fluorescence reading J + 8 (M. tuberculosis H37Rv; [7]): 0
State (M. tuberculosis H37Rv; [8]): S
fluorescence reading D + 0 (M. tuberculosis H37Rv; [8]): 0
fluorescence reading D + 1 (M. tuberculosis H37Rv; [8]): 0
fluorescence reading D + 5 (first column, c6) (M. tuberculosis H37Rv; [8]): 0
fluorescence reading D + 5 (second column, c7) (M. tuberculosis H37Rv; [8]): 0
fluorescence reading D + 6 (M. tuberculosis H37Rv; [8]): 0
fluorescence reading D + 7 (first column, c9) (M. tuberculosis H37Rv; [8]): 0
fluorescence reading D + 7 (second column, c10) (M. tuberculosis H37Rv; [8]): 0
fluorescence reading J + 8 (M. tuberculosis H37Rv; [8]): 0
State (M. tuberculosis H37Rv; [9]): R
fluorescence reading D + 0 (M. tuberculosis H37Rv; [9]): 0
fluorescence reading D + 1 (M. tuberculosis H37Rv; [9]): 0
fluorescence reading D + 5 (first column, c6) (M. tuberculosis H37Rv; [9]): 400
fluorescence reading D + 5 (second column, c7) (M. tuberculosis H37Rv; [9]): 400
fluorescence reading D + 6 (M. tuberculosis H37Rv; [9]): 400
fluorescence reading D + 7 (first column, c9) (M. tuberculosis H37Rv; [9]): 400
fluorescence reading D + 7 (second column, c10) (M. tuberculosis H37Rv; [9]): 400
fluorescence reading J + 8 (M. tuberculosis H37Rv; [9]): 400

O=C(Nc1ccccc1)N1CCC(c2nc(-c3cccs3)no2)CC1 [Compound 48, 4-(3-thiophen-2-yl[1,2,4]oxadiazol-5-yl)piperidine-1-carboxylic acid phenylamide]
solubility at 24 h [1]: 0.86 µg/mL (≈ 2.43 µM)
inhibition at 3 µM (EthR protein [2]): 56%
IC50 (EthR protein [3]): 1140 nM

O=C(Nc1cccs1)N1CCC(c2nc(-c3cccs3)no2)CC1 [Compound 50, 4-(3-thiophen-2-yl[1,2,4]oxadiazol-5-yl)piperidine-1-carboxylic acid thiophen-2-ylamide]
solubility at 24 h [1]: 2.9 µg/mL (≈ 8.05 µM)
inhibition at 3 µM (EthR protein [2]): 96%
IC50 (EthR protein [3]): 440 nM

O=C(c1ccccc1)N1CCC(c2nc(-c3cccs3)no2)CC1 [Compound 54, phenyl[4-(3-thiophen-2-yl[1,2,4]oxadiazol-5-yl)piperid-1-yl]methanone]
solubility at 24 h [1]: 38.7 µg/mL (≈ 114 µM)
inhibition at 3 µM (EthR protein [2]): 5%
